In assay [1] the target is T1, β3-adrenergic receptor (Homo sapiens, UniProt P13945).
T1 construct: expressed in transfected cells; host or cells: HEK293
Description: Functional cellular cAMP (HTRF) assay, HEK293 cells expressing β3-ARs. The assay is classed as cell-based. The procedure: (§1) The potency and maximal effect of vibegron and mirabegron for β3-adrenergic receptors and the selectivity for each […] receptor were determined. Functional cellular assays for vibegron and mirabegron activity were performed using Chinese hamster ovary (CHO) cells expressing β1- or β2-ARs and human embryonic kidney (HEK) 293 cells expressing β3-ARs. Cells were incubated with vibegron, mirabegron, or the appropriate control (isoproterenol for β1 and β3, procaterol for β2). Responses were quantified using homogeneous time-resolved fluorescence of cyclic adenosine monophosphate. Half-maximal effective concentration (EC50) and maximum response (Emax) values were determined by nonlinear least-squares regression analysis.
In general terms: TR-FRET usually uses a lanthanide donor and a delayed reading to cut background.

Assay [2] deals with T2, β1-adrenergic receptor (Homo sapiens, UniProt P08588).
T2 construct: expressed in transfected cells; host or cells: CHO
Description: Functional cellular cAMP (HTRF) assay, CHO cells expressing β1-ARs. The note with it: relative to isoproterenol. Type of assay: cell-based. On the procedure: as §1

In assay [3] the target is T3, β2-adrenergic receptor (Homo sapiens, UniProt P07550).
T3 construct: expressed in transfected cells; host or cells: CHO
Description: Functional cellular cAMP (HTRF) assay, CHO cells expressing β2-ARs. Type of assay: cell-based. The note with it: relative to procaterol. On the procedure: as §1

Assay [4] concerns subjects with NYHA class II-III HF and LVEF <40%. The conditions noted are these: BEAT-HF trial; cited from earlier work.
In assay [5] the test system is elderly patients with heart failure, including a subgroup with HFpEF. The note with it: cited from earlier work.

pEC50: −log10 of the molar value.

T1 sequence (P13945 whole entry): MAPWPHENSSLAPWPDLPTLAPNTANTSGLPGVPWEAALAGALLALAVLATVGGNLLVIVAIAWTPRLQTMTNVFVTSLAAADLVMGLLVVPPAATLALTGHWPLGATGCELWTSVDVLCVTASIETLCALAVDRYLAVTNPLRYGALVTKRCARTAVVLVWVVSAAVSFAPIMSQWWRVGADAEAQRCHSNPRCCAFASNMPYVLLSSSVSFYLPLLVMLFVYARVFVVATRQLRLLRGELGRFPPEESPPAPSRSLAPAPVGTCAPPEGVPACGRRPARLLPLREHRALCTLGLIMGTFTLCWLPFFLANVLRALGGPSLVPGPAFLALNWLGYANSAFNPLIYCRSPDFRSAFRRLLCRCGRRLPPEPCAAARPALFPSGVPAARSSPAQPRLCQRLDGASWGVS
T2 sequence (P08588 whole entry): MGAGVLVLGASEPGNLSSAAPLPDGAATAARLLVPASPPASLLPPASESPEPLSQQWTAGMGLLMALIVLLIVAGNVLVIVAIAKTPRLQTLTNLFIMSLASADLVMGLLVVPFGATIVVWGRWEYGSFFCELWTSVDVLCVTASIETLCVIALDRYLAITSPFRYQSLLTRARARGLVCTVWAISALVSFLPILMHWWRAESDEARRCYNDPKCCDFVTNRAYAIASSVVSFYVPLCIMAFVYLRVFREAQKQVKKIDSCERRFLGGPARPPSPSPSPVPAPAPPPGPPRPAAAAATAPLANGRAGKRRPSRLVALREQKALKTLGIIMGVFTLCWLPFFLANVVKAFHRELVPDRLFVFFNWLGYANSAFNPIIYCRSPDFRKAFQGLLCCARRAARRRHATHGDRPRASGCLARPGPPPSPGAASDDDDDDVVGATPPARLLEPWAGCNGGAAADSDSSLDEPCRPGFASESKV
T3 sequence (P07550 whole entry): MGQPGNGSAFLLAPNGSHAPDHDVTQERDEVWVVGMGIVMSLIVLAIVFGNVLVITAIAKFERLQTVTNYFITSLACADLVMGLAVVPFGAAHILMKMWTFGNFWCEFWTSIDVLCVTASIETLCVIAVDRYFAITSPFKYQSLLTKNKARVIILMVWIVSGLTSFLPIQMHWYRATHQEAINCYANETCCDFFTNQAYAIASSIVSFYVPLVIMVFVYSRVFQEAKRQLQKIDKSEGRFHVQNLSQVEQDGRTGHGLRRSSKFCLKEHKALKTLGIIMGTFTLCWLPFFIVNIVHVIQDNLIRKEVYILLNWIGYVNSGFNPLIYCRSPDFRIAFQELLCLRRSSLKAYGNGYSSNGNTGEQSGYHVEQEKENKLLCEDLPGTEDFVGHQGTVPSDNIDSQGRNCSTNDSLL

In general, Emax refers to the size of the effect at its maximum, as opposed to the concentration needed. What is called pEC50 is the EC50 on a negative log10 scale, so that one unit is a factor of ten. With `Nc1nc(CC(=O)Nc2ccc(CCNC[C@H](O)c3ccccc3)cc2)cs1` [Mirabegron], the “β3-adrenergic activity relative to isoproterenol (% Activity)” value in assay [1] (10 μM, HEK293 cells) came out at 88%. Moreover, the maximal effect (Emax) in assay [1] (HEK293, estimated by nonlinear least-squares regression, read-out: Emax (maximum response) at the β3-AR) was 80.4%. The pEC50 in assay [1] (HEK293 cells expressing β3-ARs, cAMP, read-out: Mean (SEM) EC50 at the β3-AR) was 8.00. In assay [2], the “β1-adrenergic activity (% Activity)” value came out at 3%. Moreover, the “β2-adrenergic activity (% Activity)” value in assay [3] came out at 15%. Moreover, the “Primary endpoint (change in LVEF)” value in assay [4] is recorded as “failed to meet the primary endpoint”.
`OC(CNCC(O)C1CCc2cc(F)ccc2O1)C1CCc2cc(F)ccc2O1` (stereo not shown) [nebivolol]: the “Treatment of heart failure” value in assay [5] was “some success in treating heart failure in elderly patients”.

Source of the values: patent publication US20260224577A1, “METHODS OF TREATING HEART FAILURE WITH VIBEGRON” (SUMITOMO PHARMA CO., LTD., priority 2021, published 2026).
